# Assays:
# [1] = biological target: purified human Factor XIa (Homo sapiens (Human), UniProt P03951); experiment: Factor XIa Assay; type: biochemical; conditions: substrate Z-Gly-Pro-Arg-AFC 100 μM, 40 pM enzyme, pH 7.4; read-out: FXIa IC50
# Method: The effectiveness of a compound of the present invention as an inhibitor of Coagulation Factor XIa can be determined using a relevant purified serine protease, and an appropriate synthetic substrate. The rate of hydrolysis of the chromogenic or fluorogenic substrate by the relevant serine protease was measured both in the absence and presence of compounds of the present invention. Assays were conducted at room temperature or at 37° C. […] A decrease in the rate of fluorescence change in the presence of inhibitor is indicative of enzyme inhibition. Such methods are known to one skilled in the art. […]
# Factor XIa determinations were made in 50 mM HEPES buffer at pH 7.4 containing 150 mM NaCl, 5 mM CaCl2, and 0.1% PEG 8000 (polyethylene glycol; JT Baker or Fisher Scientific). Determinations were made using purified human Factor XIa at a final concentration of 40 pM (Sekisui Diagnostics) and the synthetic substrate, Z-Gly-Pro-Arg-AFC, TFA salt (Sigma #C0980) at a concentration of 100 μM.
# Times required to achieve equilibration between enzyme and inhibitor were determined in control experiments. Initial velocities of product formation in the absence (Vo) or presence of inhibitor (Vi) were measured. Assuming competitive inhibition, and that unity is negligible compared Km/[S], [I]/e, and [I]/e (where [S], [I], and e respectively represent the total concentrations, of substrate, inhibitor and enzyme), the equilibrium constant (Ki) for dissociation of the inhibitor from the enzyme can be obtained from the dependence of Vo/Vi on [I] shown in the following equation.
# [2] = biological target: purified Human plasma kallikrein (Homo sapiens (Human), UniProt P03952); experiment: Kallikrein Assay; type: biochemical; conditions: Plasma kallikrein; substrate Acetyl-K-P-R-AFC, 0.5 nM enzyme, pH 7.4; read-out: PK IC50
# Method: The effectiveness of a compound of the present invention as an inhibitor of Kallikrein can be determined using a relevant purified serine protease, and an appropriate synthetic substrate. The rate of hydrolysis of the chromogenic or fluorogenic substrate by the relevant serine protease was measured both in the absence and presence of compounds of the present invention. Assays were conducted at room temperature or at 37° C. […] A decrease in the rate of fluorescence change in the presence of inhibitor is indicative of enzyme inhibition. Such methods are known to one skilled in the art. The results of this assay are expressed as the inhibitory constant, Ki.
# Kallikrein determinations were made in 50 mM HEPES buffer at pH 7.4 containing 150 mM NaCl, 5 mM CaCl2, and 0.1% PEG 8000 (polyethylene glycol; Fisher Scientific). Determinations were made using purified Human plasma kallikrein at a final concentration of 0.5 nM (Enzyme Research Laboratories) and the synthetic substrate, Acetyl-K-P-R-AFC (Sigma # C6608) at a concentration of […].
# Times required to achieve equilibration between enzyme and inhibitor were determined in control experiments. The reactions were performed under linear progress curve conditions and fluorescence increase measured at 405 Ex/510 Em nm. […] IC50 was determined by inflection point from a four parameter logistic curve fit. Ki was calculated using the Cheng Prusoff equation, Ki=IC50/(1+([S]/Km)).
# Sequence of purified Human plasma kallikrein (P03952 391-638): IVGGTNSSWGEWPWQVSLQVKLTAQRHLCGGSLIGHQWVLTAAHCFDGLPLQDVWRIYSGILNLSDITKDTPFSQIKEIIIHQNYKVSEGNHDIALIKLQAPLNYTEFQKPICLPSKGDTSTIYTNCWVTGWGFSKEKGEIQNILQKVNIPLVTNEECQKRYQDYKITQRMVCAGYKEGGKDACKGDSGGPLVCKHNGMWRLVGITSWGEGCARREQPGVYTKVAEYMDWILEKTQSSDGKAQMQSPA
# Sequence of purified Human plasma kallikrein (P03952 20-390 partner): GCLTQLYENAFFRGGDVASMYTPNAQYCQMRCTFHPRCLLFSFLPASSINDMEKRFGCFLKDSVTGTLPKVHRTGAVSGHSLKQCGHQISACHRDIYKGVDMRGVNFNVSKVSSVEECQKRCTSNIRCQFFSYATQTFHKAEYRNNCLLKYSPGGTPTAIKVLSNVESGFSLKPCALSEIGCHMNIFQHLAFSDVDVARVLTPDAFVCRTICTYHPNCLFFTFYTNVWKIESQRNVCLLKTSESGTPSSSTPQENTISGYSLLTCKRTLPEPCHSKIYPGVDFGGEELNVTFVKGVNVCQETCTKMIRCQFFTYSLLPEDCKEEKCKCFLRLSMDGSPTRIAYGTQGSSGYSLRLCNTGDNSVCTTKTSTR
# Sequence of purified human Factor XIa (P03951 388-625): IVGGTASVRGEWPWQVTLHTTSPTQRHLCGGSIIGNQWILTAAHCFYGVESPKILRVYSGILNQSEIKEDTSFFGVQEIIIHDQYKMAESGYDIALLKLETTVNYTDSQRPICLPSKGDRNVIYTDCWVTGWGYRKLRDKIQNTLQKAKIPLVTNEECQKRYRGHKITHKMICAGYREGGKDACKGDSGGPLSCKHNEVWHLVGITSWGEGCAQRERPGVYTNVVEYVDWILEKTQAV
# Sequence of purified human Factor XIa (P03951 19-387 partner): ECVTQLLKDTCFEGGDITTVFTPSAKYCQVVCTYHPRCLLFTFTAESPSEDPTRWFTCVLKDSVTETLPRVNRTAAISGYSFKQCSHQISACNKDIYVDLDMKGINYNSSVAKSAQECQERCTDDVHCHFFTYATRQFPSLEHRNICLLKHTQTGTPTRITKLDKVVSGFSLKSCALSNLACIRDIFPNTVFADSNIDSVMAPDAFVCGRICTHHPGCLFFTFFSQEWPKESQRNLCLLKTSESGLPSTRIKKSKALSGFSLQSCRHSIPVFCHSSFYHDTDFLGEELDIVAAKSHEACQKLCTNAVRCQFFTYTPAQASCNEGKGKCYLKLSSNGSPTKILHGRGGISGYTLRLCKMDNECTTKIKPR
Structure (SMILES),IC50 [1] [nM],IC50 [2] [nM]
"O=C(O)c1cccc(-c2cccc([C@H](Cc3ccccc3)c3ccc(-c4cc(Cl)ccc4-n4cnnn4)c[n+]3[O-])c2)c1 (stereo in doubt) [Example 9, 2-(1-(3′-carboxy-[1,1′-biphenyl]-3-yl)-2-phenylethyl)-5-(5-chloro-2-(1H-tetrazol-1-yl)phenyl)pyridine 1-oxide]",0.267,24.9
"COCCC(=O)N1CCC(c2cccc([C@H](Cc3ccccc3)c3ccc(-c4cc(Cl)ccc4-n4cnnn4)c[n+]3[O-])c2)CC1 [Example 33, 5-[5-chloro-2-(1H-tetrazol-1-yl)phenyl]-2-[(1S)-1-{3-[1-(3-methoxy-propanoyl)piperidin-4-yl]phenyl}-2-phenylethyl] pyridine 1-oxide]",11.2,376
"COCCOC(=O)N1CCC(c2cccc([C@H](Cc3ccccc3)c3ccc(-c4cc(Cl)ccc4-n4cnnn4)c[n+]3[O-])c2)CC1 [Example 45, 2-methoxyethyl 4-{3-[(1S)-1-{5-[5-chloro-2-(1H-tetrazol-1-yl)phenyl]-1-1-oxidopyridin-2-yl}-2-phenylethyl]phenyl} piperidine-1-carboxylate]",43.9,659
O=C(C1COC1)N1CCC(c2cccc([C@H](Cc3ccccc3)c3ccc(-c4cc(Cl)ccc4-n4cnnn4)c[n+]3[O-])c2)CC1 [Example 40],11.8,413
